“And” between values parts separate entries of the source, which are not always exact repeats. Identical values can stand only once. Like-named read-outs stand apart in the source and are kept apart here.
Test: Pharmacokinetics of rivaroxaban in rats after avitinib or gefitinib pretreatment
Type: in vivo, Sprague–Dawley (SD) rats
Details: for MRT last / AUC(0-inf) / Tmax / AUC(0-t) / CL/F / Cmax / half-life / MRT inf / Vd/F: male, Sprague-Dawley, rat, plasma, po, 10 mg/kg; for AUC(0-t): read-out: AUC(0–t); for CL/F: read-out: CLz/F (converted); for Cmax: read-out: Cmax; for half-life: read-out: t1/2 (converted); for MRT inf: read-out: MRT(0–∞); for Vd/F: read-out: Vz/F
Description: Eighteen male Sprague–Dawley (SD) rats weighing 300 ± 20 g were provided by the Experimental Animal Center of Wenzhou Medical University (Wenzhou, China) and kept under controlled conditions at a temperature of 23 ± 2 °C, relative humidity of 50 ± 10%, and 12 h light–dark cycle. Eighteen male SD rats were randomly assigned to three groups: avitinib, gefitinib, and control, with six rats per group. Prior to the experiment, the rats were not administered any other medications and fasted for 12 h. The experimental procedures and protocols adhered to Animal Ethics standards and were approved by the Animal Care and Use Committee of Wenzhou Medical University (approval no. wydw2019–650). All rats were anesthetized with sodium pentobarbital (40mg/kg, i.p) to relieve pain. The rats were killed through cervical dislocation.
Prior to the experiment in vivo, the six rats in the avitinib group were administered 30 mg/kg avitinib and 0.5% sodium carboxymethyl cellulose (CMC-Na) solution by gavage daily for 7 d. […] The supernatant was collected and stored at −80 °C. After thawing, 50 μL of plasma was extracted; 100 μL of acetonitrile solution containing midazolam (200 ng/mL) was then added to induce protein precipitation. After vortexing for 30 s and centrifuging at 13,000 rpm for 5 min, the […].
All assays were performed in triplicate, and the results are expressed as mean ± standard deviation. DAS software v. […] SPSS v. 25.0 (IBM, NY, USA) was used for data processing. Student’s t-tests were used to detect differences between groups. Differences with p < 0.05 were considered statistically significant.

[1] = rats, rivaroxaban 10 mg/kg oral, avitinib group (30 mg/kg pretreatment)
[2] = rats, rivaroxaban 10 mg/kg oral, control group (CMC-Na only)
[3] = rats, rivaroxaban 10 mg/kg oral, gefitinib group (25 mg/kg pretreatment)

MRT last (gefitinib group, single rats No1-No6, read-out: MRT(0-t)): 5.59 h
AUC(0-inf) [1]: 9350 ± 3840 ng·h/mL
Tmax [1]: 1.33 ± 0.82 h
AUC(0-t) [1]: 9000 ± 3740 ng·h/mL
CL/F [1]: 19.7 mL/min/kg
Cmax [1]: 1810 ± 619 ng/mL
MRT last (rats, rivaroxaban 10 mg/kg oral, avitinib group (30 mg/kg pretreatment), read-out: MRT(0–t)): 3.79 ± 0.66 h
half-life [1]: 2.2 ± 1.07 h
AUC(0-inf) [2]: 2280 ± 870 ng·h/mL
Tmax [2]: 0.83 ± 0.26 h
AUC(0-t) [2]: 2250 ± 853 ng·h/mL
CL/F [2]: 80.8 mL/min/kg
Cmax [2]: 441 ± 81.8 ng/mL
MRT last (rats, rivaroxaban 10 mg/kg oral, control group (CMC-Na only), read-out: MRT(0–t)): 3.79 ± 1.08 h
MRT inf [2]: 3.95 ± 1.05 h
Vd/F [2]: 11.5 ± 2.63 L/kg
half-life [2]: 1.61 ± 0.61 h
AUC(0-inf) [3]: 76000 ± 20800 ng·h/mL
Tmax [3]: 3.17 ± 0.98 h
AUC(0-t) [3]: 58000 ± 5890 ng·h/mL
CL/F [3]: 2.33 mL/min/kg
Cmax [3]: 8310 ± 2100 ng/mL
MRT last (rats, rivaroxaban 10 mg/kg oral, gefitinib group (25 mg/kg pretreatment), read-out: MRT(0–t)): 4.9 ± 0.47 h
MRT inf [3]: 8.23 ± 3.61 h
Vd/F [3]: 0.87 ± 0.28 L/kg
half-life [3]: 4.81 ± 2.7 h
MRT(0–∞) [1]: 4.26 ± 1.12 h
Structure (SMILES): O=C(NC[C@H]1CN(c2ccc(N3CCOCC3=O)cc2)C(=O)O1)c1ccc(Cl)s1 [rivaroxaban, Rivaroxaban]
rivaroxaban (吉非替尼 (gefitinib) group, individual rats 7-12, time 0.0833): 778.8 ng/mL and 334.9 ng/mL and 724.5 ng/mL and 847.1 ng/mL and 256.3 ng/mL and 816.3 ng/mL
rivaroxaban (吉非替尼 (gefitinib) group, individual rats 7-12, time 0.25): 1686.1 ng/mL and 1476.8 ng/mL and 2176.1 ng/mL and 1686 ng/mL and 1747.2 ng/mL
rivaroxaban (吉非替尼 (gefitinib) group, individual rats 7-12, time 0.5): 3330.8 ng/mL and 4408.9 ng/mL and 4082.8 ng/mL and 3161.2 ng/mL and 3240.3 ng/mL
rivaroxaban (吉非替尼 (gefitinib) group, individual rats 7-12, time 1): 5012 ng/mL and 6707.2 ng/mL and 5280.7 ng/mL and 6110.2 ng/mL and 4481.1 ng/mL
rivaroxaban (吉非替尼 (gefitinib) group, individual rats 7-12, time 2): 8309.8 ng/mL and 7015.4 ng/mL and 10641.7 ng/mL and 6946 ng/mL
rivaroxaban (吉非替尼 (gefitinib) group, individual rats 7-12, time 3): 6431.9 ng/mL and 10386.8 ng/mL and 7734.1 ng/mL
rivaroxaban (吉非替尼 (gefitinib) group, individual rats 7-12, time 4): 6136.6 ng/mL and 9214.1 ng/mL and 6949.9 ng/mL
rivaroxaban (吉非替尼 (gefitinib) group, individual rats 7-12, time 6): 6115 ng/mL and 5681 ng/mL and 5825.4 ng/mL
rivaroxaban (吉非替尼 (gefitinib) group, individual rats 7-12, time 8): 3374.5 ng/mL and 2542.2 ng/mL and 4779.1 ng/mL
rivaroxaban (吉非替尼 (gefitinib) group, individual rats 7-12, time 12): 732.7 ng/mL and 1716.7 ng/mL and 1654.8 ng/mL and 917.3 ng/mL
rivaroxaban (对照 (control, rivaroxaban alone) group, individual rats 13-18, time 0.0833): 278.3 ng/mL and 142.7 ng/mL and 136.5 ng/mL and 68.9 ng/mL and 158.6 ng/mL and 163.2 ng/mL
rivaroxaban (对照 (control, rivaroxaban alone) group, individual rats 13-18, time 0.25): 264.9 ng/mL and 294.2 ng/mL and 171.8 ng/mL and 256.9 ng/mL and 261.1 ng/mL
rivaroxaban (对照 (control, rivaroxaban alone) group, individual rats 13-18, time 0.5): 465.3 ng/mL and 337.5 ng/mL and 461.6 ng/mL and 378.7 ng/mL and 305.8 ng/mL
rivaroxaban (对照 (control, rivaroxaban alone) group, individual rats 13-18, time 2): 261.4 ng/ml (2×) and 475.9 ng/ml and 181.6 ng/ml and 351.5 ng/ml and 418.6 ng/ml and 334.6 ng/ml
rivaroxaban (对照 (control, rivaroxaban alone) group, individual rats 13-18, time 3): 240.8 ng/mL and 431.8 ng/mL and 207.2 ng/mL and 349.6 ng/mL
rivaroxaban (艾维替尼 (avitinib) group, individual rats 1-6, time 0.0833): 380.2 ng/mL and 320.6 ng/mL and 287.7 ng/mL and 191 ng/mL and 288.9 ng/mL and 237.4 ng/mL
rivaroxaban (艾维替尼 (avitinib) group, individual rats 1-6, time 0.25): 386.7 ng/ml (2×) and 727.9 ng/ml and 581.8 ng/ml and 614.9 ng/ml and 286.3 ng/ml and 927.5 ng/ml
rivaroxaban (艾维替尼 (avitinib) group, individual rats 1-6, time 0.5): 990.9 ng/ml (2×) and 1066.3 ng/ml and 1018.5 ng/ml and 978.4 ng/ml and 583.2 ng/ml and 1904.4 ng/ml
rivaroxaban (艾维替尼 (avitinib) group, individual rats 1-6, time 1): 1423.2 ng/ml (2×) and 1593.7 ng/ml and 2386.3 ng/ml and 1162.7 ng/ml and 1561.2 ng/ml and 2231.2 ng/ml
